How the values were obtained:
Vasokonstriktion = assay: Topical anti-inflammatory activity: vasoconstriction test on tape-stripped back skin of healthy volunteers, visual grading 1-5 compared with DFV; assay type: in vivo, gesunden Probanden; details: Konz. der Salbe, mean of 8 volunteers, positive = better than DFV, negative = worse
Source text: (§1) Die Prednison-Derivate der allgemeinen Formel I gemäß Anspruch 1 zeichnen sich gegenüber dem in handelsüblichen pharmazeutischen Präparate befindlichen, strukturanalogen Kortikoid 17α-Butyryloxy-21-chlor-9α-fluor-16β-methyl- l,4-pregnadien-3,11,20-trion durch eine günstigere Dissoziation zwischen erwünschter topischer antiinflammatorischer Wirksamkeit und unerwünschter systemischer Nebenwirkung aus, wie folgende pharmakologische Untersuchungen zeigen: • a) Ermittlung der topischen antiinflammatorischen Wirksamkeit: Die Untersuchungen werden an je 8 gesunden Probanden beider Geschlechter durchgeführt, die in den letzten zwei Wochen keine lokale Corticosteroidbehandlung erhalten hatten. Nach dem Entfernen des Stratum corneum bis zum Stratum lucidum auf dem Rücken der Probanden (20 - 40 Tesafilm-Abrisse) werden je o,l g der Zubereitung auf 4 cm^2 große Felder ohne Okklusionsverband aufgetragen. Um zu vermeiden, daß die gleiche Zubereitung jeweils auf identische Hautreale appliziert wird, wird in rotierender Folge aufgetragen. […]

Pfotenödems = assay: Undesired systemic activity: Mycobacterium butyricum-induced paw oedema in rats, oral administration; assay type: in vivo, SPF-Ratten; details: Rattus norvegicus, dose giving 50% reduction of paw oedema volume, measured 24 h after dosing, higher value = less undesired systemic effect, read-out: Systemische Wirksamkeit ED50
Source text: as §1

CCCC(=O)O[C@]1(C(=O)CCl)CC[C@H]2[C@@H]3CCC4=CC(=O)C=C[C@]4(C)[C@@]3(F)C(=O)C[C@@]21C [Nr. 3, 17α-Butyryloxy-21-chlor-9α-fluor-1,4-pregnadien-3,11,20-trion]
Topische Wirksamkeit, Wirkungsgrad DFV - Wirkungsgrad Substanz (Vasokonstriktion; Beobachtungszeit 4 h): -0,1 | Topische Wirksamkeit, Wirkungsgrad DFV - Wirkungsgrad Substanz (Vasokonstriktion; Beobachtungszeit 8 h): 0,0 | ED50 (Pfotenödems): 30 mg/kg
